Measurements taken from patent US20140005163A1 (NOVARTIS AG, priority 2010, published 2014).

What was measured:
PI3K delta = molecular target: T1, PI3K delta (Homo sapiens, UniProt O00329); assay: PI3K delta kinase assay (Kinase-Glo luminescence); assay type: biochemical
T1 construct: for the full-length p110-d subunit are generated and fused by overlapping PCR; p85(iSH2) fusion partner (see partner chain) (N); His tag (C); made in house; host or cells: baculovirus; Tn5 (Trichoplusia ni) or TiniPro insect cells
Summary of the method: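 ATP depletion was measured by Kinase-Glo luminescence after a 60-minute room-temperature reaction containing 1 μM ATP, 10 μg/mL PI and 10 nM His-tagged p85(iSH2)-linker-p110δ (BV-1060). Buffer: Tris pH 7.5, 3 mM MgCl2, 50 mM NaCl, 0.05% CHAPS, 1 mM DTT. IC50 values came from four-parameter fits over eight concentrations.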

mTOR = molecular target: T2, mTOR (Homo sapiens, UniProt P42345); assay: Biochemical assay for m-TOR by TR-FRET; conditions: 8 μM ATP, 400 nM GFP-4EBP1, 0.5 nM mTOR
T2 construct: purchased Invitrogen Corporation (Carlsbad/CA, USA) PV4753
Summary of the method: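 TR-FRET read-out: Tb-labelled anti-p4EBP1 pThr46 antibody (0.5 nM), added in EDTA to stop the reaction, detects phosphorylated GFP-4EBP1 after 15 min. Kinase step used 0.5 nM mTOR, 400 nM substrate, 8 μM ATP, MnCl2-containing HEPES buffer pH 7.5, room temperature.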

[1] = tested on: PKB Ser473 phosphorylation in Rat1-myr-HA-p110 alpha cells; assay: Reverse protein array assay, PKB Ser473 phosphorylation in Rat1-myr-p110 alpha cells; assay type: cell-based; conditions: 0.5 h, pAkt Ser473, 30 minutes compound incubation, read-out: p-PKB IC50
Summary of the method: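 After at least 20 h of culture, the p110 isoform-transfected Rat1 lines receive compound in an 8-step dilution series, keeping DMSO at 0.2%, for 30 minutes. Cells are then lysed and lysates arrayed on chips for fluorescence detection of Ser473-phosphorylated PKB.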

T1 sequence (O00329 with tags, fused parts or gaps limits assumed): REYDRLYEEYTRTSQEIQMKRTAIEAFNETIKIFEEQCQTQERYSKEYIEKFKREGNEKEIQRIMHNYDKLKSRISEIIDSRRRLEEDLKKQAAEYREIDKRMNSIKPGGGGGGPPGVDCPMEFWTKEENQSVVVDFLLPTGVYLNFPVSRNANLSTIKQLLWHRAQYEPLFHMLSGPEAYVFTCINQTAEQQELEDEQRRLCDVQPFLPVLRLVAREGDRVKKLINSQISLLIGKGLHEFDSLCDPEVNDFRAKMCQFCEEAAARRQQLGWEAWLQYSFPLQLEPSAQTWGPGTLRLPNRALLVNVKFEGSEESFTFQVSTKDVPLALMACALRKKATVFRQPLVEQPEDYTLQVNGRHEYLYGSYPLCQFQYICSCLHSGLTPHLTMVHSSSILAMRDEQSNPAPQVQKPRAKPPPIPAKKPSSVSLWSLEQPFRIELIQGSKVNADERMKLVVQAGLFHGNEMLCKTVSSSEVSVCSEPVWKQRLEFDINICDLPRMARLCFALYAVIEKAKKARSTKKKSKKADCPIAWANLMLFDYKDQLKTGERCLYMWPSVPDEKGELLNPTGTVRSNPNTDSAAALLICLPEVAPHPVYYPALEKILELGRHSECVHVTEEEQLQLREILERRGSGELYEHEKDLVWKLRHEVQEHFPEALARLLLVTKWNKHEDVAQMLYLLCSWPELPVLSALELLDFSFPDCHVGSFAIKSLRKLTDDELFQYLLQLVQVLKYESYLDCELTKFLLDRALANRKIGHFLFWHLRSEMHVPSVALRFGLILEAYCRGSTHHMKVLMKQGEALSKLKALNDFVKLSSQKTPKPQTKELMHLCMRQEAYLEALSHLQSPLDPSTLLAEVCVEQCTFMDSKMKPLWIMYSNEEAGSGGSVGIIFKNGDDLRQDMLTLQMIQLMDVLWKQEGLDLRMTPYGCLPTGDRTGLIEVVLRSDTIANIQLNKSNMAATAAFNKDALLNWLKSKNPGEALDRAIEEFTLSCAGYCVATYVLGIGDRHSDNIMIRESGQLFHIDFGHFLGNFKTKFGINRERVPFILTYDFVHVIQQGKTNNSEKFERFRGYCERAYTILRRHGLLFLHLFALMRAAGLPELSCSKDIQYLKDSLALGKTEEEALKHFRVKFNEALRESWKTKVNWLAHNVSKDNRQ
T2 sequence (P42345 1360-2549 limits assumed): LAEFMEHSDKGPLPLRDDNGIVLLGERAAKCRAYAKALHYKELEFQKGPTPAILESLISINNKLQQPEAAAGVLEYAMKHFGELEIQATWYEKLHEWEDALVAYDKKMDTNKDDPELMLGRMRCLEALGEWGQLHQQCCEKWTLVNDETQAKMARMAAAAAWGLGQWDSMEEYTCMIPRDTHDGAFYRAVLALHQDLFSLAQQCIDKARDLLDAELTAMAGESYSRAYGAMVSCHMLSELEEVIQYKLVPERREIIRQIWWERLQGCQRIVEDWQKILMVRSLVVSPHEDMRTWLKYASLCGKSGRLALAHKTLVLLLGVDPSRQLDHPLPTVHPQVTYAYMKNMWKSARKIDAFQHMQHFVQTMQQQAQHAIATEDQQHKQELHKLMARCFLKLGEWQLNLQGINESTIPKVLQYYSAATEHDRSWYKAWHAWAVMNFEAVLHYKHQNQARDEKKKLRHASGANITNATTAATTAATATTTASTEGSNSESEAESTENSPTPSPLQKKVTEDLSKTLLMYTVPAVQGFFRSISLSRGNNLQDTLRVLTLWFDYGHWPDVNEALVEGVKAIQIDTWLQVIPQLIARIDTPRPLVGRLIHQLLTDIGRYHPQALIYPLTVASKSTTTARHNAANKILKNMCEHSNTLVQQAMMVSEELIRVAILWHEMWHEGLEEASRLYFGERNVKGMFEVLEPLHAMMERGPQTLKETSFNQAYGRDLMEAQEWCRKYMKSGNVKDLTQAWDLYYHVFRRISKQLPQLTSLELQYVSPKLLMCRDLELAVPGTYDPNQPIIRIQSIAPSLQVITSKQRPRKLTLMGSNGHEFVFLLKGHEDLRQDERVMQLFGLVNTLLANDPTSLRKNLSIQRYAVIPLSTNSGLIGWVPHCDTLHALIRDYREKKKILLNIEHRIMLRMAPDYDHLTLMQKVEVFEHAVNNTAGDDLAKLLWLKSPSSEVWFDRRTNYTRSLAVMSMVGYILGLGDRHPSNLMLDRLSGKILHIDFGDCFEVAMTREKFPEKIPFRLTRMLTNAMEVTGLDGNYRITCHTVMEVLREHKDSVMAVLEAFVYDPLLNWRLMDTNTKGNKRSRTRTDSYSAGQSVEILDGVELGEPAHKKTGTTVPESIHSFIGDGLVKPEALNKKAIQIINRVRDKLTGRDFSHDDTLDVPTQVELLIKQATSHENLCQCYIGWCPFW

SMILES | IC50 (PI3K delta) | IC50 (mTOR) | IC50 [1]
CN(C)c1ccc(-c2ccc3ncc4c(c3c2)n(-c2cn(C)nc2Cl)c(=O)n4C)cn1 [Example 4.9, 1-(3-Chloro-1-methyl-1H-pyrazol-4-yl)-8-(6-dimethylamino-pyridin-3-yl)-3-methyl-1,3-dihydro-imidazo[4,5-c]quinolin-2-one] | 12 nM | 11 nM | 5 nM
CN(C)c1ncc(-c2ccc3ncc4c(c3c2)n(-c2cn(C)nc2Cl)c(=O)n4C)cn1 [Example 6.3, 1-(3-Chloro-1-methyl-1H-pyrazol-4-yl)-8-(2-dimethylamino-pyrimidin-5-yl)-3-methyl-1,3-dihydro-imidazo[4,5-c]quinolin-2-one] | 7 nM | 5 nM | 9 nM
Cc1nn(C)cc1-n1c(=O)n(C)c2cnc3ccc(-c4cnc(N)c(C(F)(F)F)c4)cc3c21 [Example 25.1, 8-(6-Amino-5-trifluoromethyl-pyridin-3-yl)-1-(1,3-dimethyl-1H-pyrazol-4-yl)-3-methyl-1,3-dihydro-imidazo[4,5-c]quinolin-2-one] | 13 nM | 9 nM | 5 nM
Cc1cc(-n2c(=O)n(C)c3cnc4ccc(-c5cnc(N)c(C(F)(F)F)c5)cc4c32)n(C)n1 [Example 25.6, 8-(6-Amino-5-trifluoromethyl-pyridin-3-yl)-1-(2,5-dimethyl-2H-pyrazol-3-yl)-3-methyl-1,3-dihydro-imidazo[4,5-c]quinolin-2-one] | 32 nM | 82 nM | 8 nM
CNS(=O)(=O)c1cccc(-c2ccc3ncc4c(c3c2)n(-c2cn(C)nc2C)c(=O)n4C)c1 [Example 39, 3-[1-(1,3-Dimethyl-1H-pyrazol-4-yl)-3-methyl-2-oxo-2,3-dihydro-1H-imidazo[4,5-c]quinolin-8-yl]-N-methyl-benzenesulfonamide] | 3 nM | 69 nM | 35 nM
Cc1nn(C)cc1-n1c(=O)n(C)c2cnc3ccc(-c4cccc(NS(C)(=O)=O)c4)cc3c21 [Example 47, N-{3-[1-(1,3-dimethyl-1H-pyrazol-4-yl)-3-methyl-2-oxo-2,3-dihydro-1H-imidazo[4,5-c]quinolin-8-yl]-phenyl}-methanesulfonamide] | 178 nM | 281 nM | 73 nM
CC(C)Oc1cncc(-c2ccc3ncc4c(c3c2)n(-c2cn(C)nc2Cl)c(=O)n4C)c1 [Example 58.2, 1-(3-Chloro-1-methyl-1H-pyrazol-4-yl)-8-(5-isopropoxy-pyridin-3-yl)-3-methyl-1,3-dihydro-imidazo[4,5-c]quinolin-2-one] | 4 nM | 3 nM | 9 nM
Cc1nn(C)cc1-n1c(=O)n(C)c2cnc3ccc(-c4cncc(OC5CCC5)c4)cc3c21 [Example 60.1, 8-(5-Cyclobutoxy-pyridin-3-yl)-1-(1,3-dimethyl-1H-pyrazol-4-yl)-3-methyl-1,3-dihydro-imidazo[4,5-c]quinolin-2-one] | < 3 nM | 5 nM | < 5 nM
Cc1nn(C)cc1-n1c(=O)n(C)c2cnc3ccc(-c4ccc(-c5ncc[nH]5)cc4)cc3c21 [Example 77, 1-(1,3-Dimethyl-1H-pyrazol-4-yl)-8-[4-(1H-imidazol-2-yl)-phenyl]-3-methyl-1,3-dihydro-imidazo[4,5-c]quinolin-2-one] | 8 nM | < 3 nM | 7 nM
Cc1nn(C)cc1-n1c(=O)n(C)c2cnc3ccc(-c4cccc(OC(C)C)c4)cc3c21 [Example 82, 1-(1,3-Dimethyl-1H-pyrazol-4-yl)-8-(3-isopropoxy-phenyl)-3-methyl-1,3-dihydro-imidazo[4,5-c]quinolin-2-one] | 77 nM | 27 nM | 44 nM
CCN(CC)c1cncc(-c2ccc3ncc4c(c3c2)n(-c2cn(C)nc2C)c(=O)n4C)c1 [Example 95, 8-(5-Diethylamino-pyridin-3-yl)-1-(1,3-dimethyl-1H-pyrazol-4-yl)-3-methyl-1,3-dihydro-imidazo[4,5-c]quinolin-2-one] | 24 nM | 20 nM | < 5 nM
Cc1nn(C)cc1-n1c(=O)n(C)c2cnc3ccc(-c4ccc(N5CCCC5)nc4)cc3c21 [Example 97, 1-(1,3-Dimethyl-1H-pyrazol-4-yl)-3-methyl-8-(6-pyrrolidin-1-yl-pyridin-3-yl)-1,3-dihydro-imidazo[4,5-c]quinolin-2-one] | 236 nM | 7 nM | 7 nM
CNc1ncc(-c2ccc3ncc4c(c3c2)n(-c2cn(C)nc2Cl)c(=O)n4C)cc1C [Example 119, 1-(3-Chloro-1-methyl-1H-pyrazol-4-yl)-3-methyl-8-(5-methyl-6-methylamino-pyridin-3-yl)-1,3-dihydro-imidazo[4,5-c]quinolin-2-one] | 9 nM | < 3 nM | 6 nM
Cc1nn(C)cc1-n1c(=S)n(C)c2cnc3ccc(-c4cccnc4)cc3c21 [Example 128.1, 1-(1,3-Dimethyl-1H-pyrazol-4-yl)-3-methyl-8-pyridin-3-yl-1,3-dihydro-imidazo[4,5-c]quinoline-2-thione] | 22 nM | 69 nM | 5 nM
COc1ccc(-c2ccc3ncc4c(c3c2)n(-c2cn(C)nc2C)c(=S)n4C)cc1OC [Example 128.2, 8-(3,4-Dimethoxy-phenyl)-1-(1,3-dimethyl-1H-pyrazol-4-yl)-3-methyl-1,3-dihydro-imidazo[4,5-c]quinoline-2-thione] | 11 nM | 12 nM | < 5 nM
CNc1ncc(-c2ccc3ncc4c(c3c2)n(-c2cn(C(C)C)nc2C)c(=O)n4C)cc1C(F)(F)F [Example 144.2, 1-(1-Isopropyl-3-methyl-1H-pyrazol-4-yl)-3-methyl-8-(6-methylamino-5-trifluoromethyl-pyridin-3-yl)-1,3-dihydro-imidazo[4,5-c]quinolin-2-one] | 4 nM | < 3 nM | < 5 nM
CCNc1ncc(-c2ccc3ncc4c(c3c2)n(-c2cn(C)nc2C)c(=O)n4C)cc1C(F)(F)F [Example 145.2, 1-(1,3-Dimethyl-1H-pyrazol-4-yl)-8-(6-ethylamino-5-trifluoromethyl-pyridin-3-yl)-3-methyl-1,3-dihydro-imidazo[4,5-c]quinolin-2-one] | 9 nM | 16 nM | 9 nM
CCn1cc(-n2c(=O)n(C)c3cnc4ccc(-c5cnc(N)c(Cl)c5)cc4c32)c(C)n1 [Example 148.3, 8-(6-Amino-5-chloro-pyridin-3-yl)-1-(1-ethyl-3-methyl-1H-pyrazol-4-yl)-3-methyl-1,3-dihydro-imidazo[4,5-c]quinolin-2-one] | 13 nM | 12 nM | < 5 nM
Cc1cc(-n2c(=O)n(C)c3cnc4ccc(-c5cnc(F)c(N)c5)cc4c32)n(C)n1 [Example 149.3, 8-(5-Amino-6-fluoro-pyridin-3-yl)-1-(2,5-dimethyl-2H-pyrazol-3-yl)-3-methyl-1,3-dihydro-imidazo[4,5-c]quinolin-2-one] | 38 nM | 210 nM | 49 nM
Cc1nn(C(C)C)cc1-n1c(=O)n(C)c2cnc3ccc(-c4cnc(Cl)c(N)c4)cc3c21 [Example 152.1, 8-(5-Amino-6-chloro-pyridin-3-yl)-1-(1-isopropyl-3-methyl-1H-pyrazol-4-yl)-3-methyl-1,3-dihydro-imidazo[4,5-c]quinolin-2-one] | 8 nM | 13 nM | 7 nM
Cc1nn(C)c(C)c1-n1c(=O)n(C)c2cnc3ccc(-c4cnc(Cl)c(N)c4)cc3c21 [Example 152.3, 8-(5-Amino-6-chloro-pyridin-3-yl)-3-methyl-1-(1,3,5-trimethyl-1H-pyrazol-4-yl)-1,3-dihydro-imidazo[4,5-c]quinolin-2-one] | 7 nM | 189 nM | 123 nM
CCOCc1cc(-c2ccc3ncc4c(c3c2)n(-c2cn(C(C)C)nc2C)c(=O)n4C)cnc1N [Example 166.3, 8-(6-Amino-5-ethoxymethyl-pyridin-3-yl)-1-(1-isopropyl-3-methyl-1H-pyrazol-4-yl)-3-methyl-1,3-dihydro-imidazo[4,5-c]quinolin-2-one] | 6 nM | 55 nM | 40 nM
CCOCc1cc(-c2ccc3ncc4c(c3c2)n(-c2cn(C)nc2Cl)c(=O)n4C)cnc1N [Example 166.4, 8-(6-Amino-5-ethoxymethyl-pyridin-3-yl)-1-(3-chloro-1-methyl-1H-pyrazol-4-yl)-3-methyl-1,3-dihydro-imidazo[4,5-c]quinolin-2-one] | < 3 nM | 16 nM | 5 nM
Cc1nn(C(C)C)cc1-n1c(=O)n(C)c2cnc3ccc(-c4cnc5c(c4)COC(=O)N5C)cc3c21 [Example 170, 1-(1-Isopropyl-3-methyl-1H-pyrazol-4-yl)-3-methyl-8-(1-methyl-2-oxo-1,4-dihydro-2H-pyrido[2,3-d][1,3]oxazin-6-yl)-1,3-dihydro-imidazo[4,5-c]quinolin-2-one] | 23 nM | 1820 nM | 268 nM
